Laboratory results taken from ChEMBL document CHEMBL5465560, “Selectivity Literature for EUbOPEN Chemogenomic Library” (2024).
One block for each molecule: values may come before it.

Key:
[1] = target: T1, Phosphatidylinositol 4,5-bisphosphate 3-kinase catalytic subunit delta isoform (Homo sapiens) (UniProt O00329); test: Selectivity interaction (ActivX KiNativ screen (kinase selectivity in THP-1 cell lysates)) EUB0000639a PIK3CD; type: subcellular; conditions: lysate, at 5 µM
T1 sequence (whole entry): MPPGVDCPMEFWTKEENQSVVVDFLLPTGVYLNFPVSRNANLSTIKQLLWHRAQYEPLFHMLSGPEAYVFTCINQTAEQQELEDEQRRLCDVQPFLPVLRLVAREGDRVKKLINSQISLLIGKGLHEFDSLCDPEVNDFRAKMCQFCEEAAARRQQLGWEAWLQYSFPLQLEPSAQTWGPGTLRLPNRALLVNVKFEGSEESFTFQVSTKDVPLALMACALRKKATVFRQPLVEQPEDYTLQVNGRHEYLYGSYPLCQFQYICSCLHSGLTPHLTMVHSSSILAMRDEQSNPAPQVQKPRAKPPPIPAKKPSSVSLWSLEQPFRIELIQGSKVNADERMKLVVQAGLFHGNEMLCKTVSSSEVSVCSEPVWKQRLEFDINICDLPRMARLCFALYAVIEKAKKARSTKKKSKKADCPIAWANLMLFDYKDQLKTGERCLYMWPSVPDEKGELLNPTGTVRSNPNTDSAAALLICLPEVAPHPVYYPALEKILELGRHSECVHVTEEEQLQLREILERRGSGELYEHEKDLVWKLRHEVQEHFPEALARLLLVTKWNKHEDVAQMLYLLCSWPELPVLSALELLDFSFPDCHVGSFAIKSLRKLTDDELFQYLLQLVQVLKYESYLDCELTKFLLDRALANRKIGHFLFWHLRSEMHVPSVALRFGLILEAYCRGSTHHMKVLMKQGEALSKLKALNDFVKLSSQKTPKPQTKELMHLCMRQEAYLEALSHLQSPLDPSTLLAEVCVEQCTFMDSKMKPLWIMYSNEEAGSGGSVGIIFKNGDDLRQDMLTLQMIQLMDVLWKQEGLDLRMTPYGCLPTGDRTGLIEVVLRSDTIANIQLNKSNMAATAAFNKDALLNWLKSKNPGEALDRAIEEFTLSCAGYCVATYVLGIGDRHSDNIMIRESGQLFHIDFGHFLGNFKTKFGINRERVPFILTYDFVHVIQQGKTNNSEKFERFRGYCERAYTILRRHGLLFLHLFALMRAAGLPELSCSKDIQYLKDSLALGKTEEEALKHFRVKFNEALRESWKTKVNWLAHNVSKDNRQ

[2] = target: T2, Cyclin-dependent kinase 11A (Homo sapiens) (UniProt Q9UQ88); test: Selectivity interaction (ActivX KiNativ screen (kinase selectivity in THP-1 cell lysates)) EUB0000639a CDK11A; type: subcellular; conditions: lysate, at 1 µM
T2 sequence (whole entry): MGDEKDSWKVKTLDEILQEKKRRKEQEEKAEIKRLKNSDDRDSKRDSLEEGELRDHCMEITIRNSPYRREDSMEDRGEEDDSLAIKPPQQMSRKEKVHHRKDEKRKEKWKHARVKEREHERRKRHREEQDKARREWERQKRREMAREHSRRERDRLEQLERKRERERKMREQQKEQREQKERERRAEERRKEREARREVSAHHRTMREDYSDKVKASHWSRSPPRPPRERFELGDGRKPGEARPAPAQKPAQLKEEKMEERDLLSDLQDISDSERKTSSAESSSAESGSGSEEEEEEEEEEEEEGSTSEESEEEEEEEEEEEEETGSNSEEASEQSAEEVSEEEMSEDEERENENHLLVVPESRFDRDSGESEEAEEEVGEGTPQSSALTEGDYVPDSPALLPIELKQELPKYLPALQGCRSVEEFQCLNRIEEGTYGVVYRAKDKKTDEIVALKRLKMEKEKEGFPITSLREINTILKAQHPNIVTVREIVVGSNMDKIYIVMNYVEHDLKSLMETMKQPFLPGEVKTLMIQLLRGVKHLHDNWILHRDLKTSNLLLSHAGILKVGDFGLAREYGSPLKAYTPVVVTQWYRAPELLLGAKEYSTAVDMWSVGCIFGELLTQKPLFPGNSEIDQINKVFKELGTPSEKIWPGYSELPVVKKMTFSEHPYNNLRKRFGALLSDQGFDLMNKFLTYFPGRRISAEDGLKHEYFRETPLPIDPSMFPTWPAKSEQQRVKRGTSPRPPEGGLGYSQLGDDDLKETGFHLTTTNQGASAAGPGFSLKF

[3] = target: Tyrosine-protein kinase receptor UFO (Homo sapiens) (UniProt P30530); test: Selectivity interaction (ActivX KiNativ screen (kinase selectivity in THP-1 cell lysates)) EUB0000639a AXL; type: subcellular; conditions: lysate
Chain of Tyrosine-protein kinase receptor UFO (Homo sapiens) (P30530 whole entry): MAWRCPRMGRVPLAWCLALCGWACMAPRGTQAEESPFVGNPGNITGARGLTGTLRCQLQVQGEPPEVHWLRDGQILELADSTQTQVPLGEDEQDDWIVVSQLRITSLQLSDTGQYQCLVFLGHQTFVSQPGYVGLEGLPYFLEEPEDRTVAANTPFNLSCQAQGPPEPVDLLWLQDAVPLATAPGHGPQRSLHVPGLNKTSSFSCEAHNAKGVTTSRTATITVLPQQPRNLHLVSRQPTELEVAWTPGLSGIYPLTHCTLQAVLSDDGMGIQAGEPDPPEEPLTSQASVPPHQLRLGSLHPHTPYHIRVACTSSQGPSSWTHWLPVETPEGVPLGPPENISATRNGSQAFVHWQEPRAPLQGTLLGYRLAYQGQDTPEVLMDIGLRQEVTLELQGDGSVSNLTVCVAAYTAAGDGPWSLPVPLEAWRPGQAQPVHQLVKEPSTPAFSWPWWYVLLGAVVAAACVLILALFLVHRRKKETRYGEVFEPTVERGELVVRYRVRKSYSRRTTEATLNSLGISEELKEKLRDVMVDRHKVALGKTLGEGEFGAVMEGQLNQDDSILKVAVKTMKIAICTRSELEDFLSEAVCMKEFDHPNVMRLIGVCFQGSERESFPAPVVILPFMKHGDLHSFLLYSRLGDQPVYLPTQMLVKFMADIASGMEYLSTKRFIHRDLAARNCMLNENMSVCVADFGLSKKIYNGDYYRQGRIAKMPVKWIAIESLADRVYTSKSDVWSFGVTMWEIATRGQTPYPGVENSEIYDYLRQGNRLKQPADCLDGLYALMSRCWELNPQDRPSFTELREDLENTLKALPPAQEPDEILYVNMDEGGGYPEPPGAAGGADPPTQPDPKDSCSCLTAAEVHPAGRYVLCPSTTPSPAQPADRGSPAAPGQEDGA

[4] = target: Insulin receptor-related protein (Homo sapiens) (UniProt P14616); test: Selectivity interaction (KinomeScan (DiscoverX)) EUB0001049a INSRR; conditions: at 1 µM
[5] = target: hERG (KCNH2) (Homo sapiens, UniProt Q12809); test: Selectivity interaction (Panel of kinases, GPCRs, ion channels and transporters (enzymatic assay)) EUB0000266bCl KCNH2
Chain of hERG (KCNH2) (Q12809 whole entry): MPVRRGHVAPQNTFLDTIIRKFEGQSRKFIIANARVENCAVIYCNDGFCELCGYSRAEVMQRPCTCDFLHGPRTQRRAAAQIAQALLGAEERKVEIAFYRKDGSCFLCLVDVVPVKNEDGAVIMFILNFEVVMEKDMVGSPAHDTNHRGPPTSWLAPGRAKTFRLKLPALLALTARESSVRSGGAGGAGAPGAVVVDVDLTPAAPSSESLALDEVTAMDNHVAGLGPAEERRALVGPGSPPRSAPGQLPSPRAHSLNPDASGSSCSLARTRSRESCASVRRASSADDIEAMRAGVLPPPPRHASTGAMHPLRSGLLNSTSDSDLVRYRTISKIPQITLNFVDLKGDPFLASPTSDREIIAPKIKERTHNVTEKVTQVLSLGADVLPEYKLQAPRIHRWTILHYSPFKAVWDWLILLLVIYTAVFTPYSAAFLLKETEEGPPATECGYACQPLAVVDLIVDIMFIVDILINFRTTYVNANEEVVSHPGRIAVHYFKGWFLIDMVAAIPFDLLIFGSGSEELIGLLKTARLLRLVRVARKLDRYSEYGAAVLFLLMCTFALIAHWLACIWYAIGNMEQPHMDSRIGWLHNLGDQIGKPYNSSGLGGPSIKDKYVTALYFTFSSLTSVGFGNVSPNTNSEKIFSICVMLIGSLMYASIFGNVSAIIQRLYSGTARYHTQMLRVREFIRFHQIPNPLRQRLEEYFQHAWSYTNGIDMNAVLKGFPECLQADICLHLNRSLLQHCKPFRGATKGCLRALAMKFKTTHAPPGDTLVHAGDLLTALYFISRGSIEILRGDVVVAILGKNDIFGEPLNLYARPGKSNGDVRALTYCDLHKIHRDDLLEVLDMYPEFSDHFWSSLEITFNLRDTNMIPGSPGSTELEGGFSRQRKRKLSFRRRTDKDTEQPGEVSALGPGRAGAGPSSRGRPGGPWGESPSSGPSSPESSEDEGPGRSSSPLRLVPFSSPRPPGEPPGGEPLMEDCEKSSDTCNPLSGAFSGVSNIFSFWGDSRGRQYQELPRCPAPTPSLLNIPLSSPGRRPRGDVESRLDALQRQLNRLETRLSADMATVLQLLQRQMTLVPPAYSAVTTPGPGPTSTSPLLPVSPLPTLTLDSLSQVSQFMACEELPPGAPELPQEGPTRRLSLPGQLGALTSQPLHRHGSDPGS

[6] = target: T3, Serine/threonine-protein kinase ULK3 (Homo sapiens) (UniProt Q6PHR2); test: Selectivity interaction (LanthaScreen Eu Kinase Binding Assay) EUB0001632a ULK3; conditions: at 10 µM
T3 sequence (whole entry): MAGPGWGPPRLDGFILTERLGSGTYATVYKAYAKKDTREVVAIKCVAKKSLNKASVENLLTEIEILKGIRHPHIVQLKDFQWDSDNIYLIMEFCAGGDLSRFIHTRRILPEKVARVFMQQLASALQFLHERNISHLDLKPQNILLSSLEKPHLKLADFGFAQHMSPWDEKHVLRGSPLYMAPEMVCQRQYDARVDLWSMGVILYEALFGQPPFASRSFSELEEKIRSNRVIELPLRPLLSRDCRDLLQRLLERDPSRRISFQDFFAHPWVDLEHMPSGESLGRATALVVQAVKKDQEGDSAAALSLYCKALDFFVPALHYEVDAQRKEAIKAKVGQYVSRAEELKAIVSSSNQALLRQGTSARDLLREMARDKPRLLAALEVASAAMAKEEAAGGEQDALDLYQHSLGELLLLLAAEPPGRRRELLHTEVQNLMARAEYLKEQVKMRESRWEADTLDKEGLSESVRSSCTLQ

[7] = test system: Epidermal growth factor receptor (Homo sapiens), P00533 [L858R,T790M]; test: (§1) Selectivity interaction (Kinase panel (Z-LYTE Assay)) EUB0001632a EGFR; conditions: at 10 µM
Chain of Epidermal growth factor receptor (Homo sapiens), P00533 [L858R,T790M] (P00533 whole entry T790M/L858R, looked up): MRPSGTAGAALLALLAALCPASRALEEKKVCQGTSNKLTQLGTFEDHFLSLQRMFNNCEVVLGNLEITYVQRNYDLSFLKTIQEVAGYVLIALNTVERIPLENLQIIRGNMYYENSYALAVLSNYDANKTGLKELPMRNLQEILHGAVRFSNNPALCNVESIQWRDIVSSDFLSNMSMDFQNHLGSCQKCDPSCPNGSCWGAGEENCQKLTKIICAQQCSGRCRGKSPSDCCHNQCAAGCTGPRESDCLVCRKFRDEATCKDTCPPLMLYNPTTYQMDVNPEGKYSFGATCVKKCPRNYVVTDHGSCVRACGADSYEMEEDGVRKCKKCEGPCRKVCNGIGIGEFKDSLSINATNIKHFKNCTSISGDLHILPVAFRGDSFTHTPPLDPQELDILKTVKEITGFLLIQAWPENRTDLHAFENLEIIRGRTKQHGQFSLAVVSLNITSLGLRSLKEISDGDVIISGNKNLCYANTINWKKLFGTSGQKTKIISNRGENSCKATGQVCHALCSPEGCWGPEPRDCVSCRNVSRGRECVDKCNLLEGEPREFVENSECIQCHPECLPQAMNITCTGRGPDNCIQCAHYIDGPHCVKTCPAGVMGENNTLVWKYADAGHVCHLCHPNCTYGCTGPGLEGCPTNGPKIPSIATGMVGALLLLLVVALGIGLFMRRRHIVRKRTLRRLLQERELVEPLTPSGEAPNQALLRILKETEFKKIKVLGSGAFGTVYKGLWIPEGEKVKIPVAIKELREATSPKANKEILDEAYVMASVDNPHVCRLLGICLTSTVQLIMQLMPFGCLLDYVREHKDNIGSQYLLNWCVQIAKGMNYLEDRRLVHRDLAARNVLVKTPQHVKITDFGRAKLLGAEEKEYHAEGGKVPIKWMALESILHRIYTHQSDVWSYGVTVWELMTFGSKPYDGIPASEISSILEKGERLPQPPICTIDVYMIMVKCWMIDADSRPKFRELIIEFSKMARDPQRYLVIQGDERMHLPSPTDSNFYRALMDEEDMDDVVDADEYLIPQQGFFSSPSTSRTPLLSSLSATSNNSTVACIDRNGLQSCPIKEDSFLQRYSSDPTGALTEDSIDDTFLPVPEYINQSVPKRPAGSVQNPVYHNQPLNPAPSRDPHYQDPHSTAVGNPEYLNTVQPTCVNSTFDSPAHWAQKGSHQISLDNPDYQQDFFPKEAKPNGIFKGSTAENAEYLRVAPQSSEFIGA

[8] = target: Epidermal growth factor receptor (Homo sapiens, UniProt P00533); test: as §1; conditions: at 10 µM
[9] = test system: Epidermal growth factor receptor (Homo sapiens), P00533 [L858R]; test: as §1; conditions: at 10 µM
[10] = test system: Epidermal growth factor receptor (Homo sapiens), P00533 [L861Q]; test: as §1; conditions: at 10 µM
[11] = test system: Epidermal growth factor receptor (Homo sapiens), P00533 [T790M]; test: as §1; conditions: at 10 µM
Chain of Epidermal growth factor receptor (Homo sapiens), P00533 [T790M] (P00533 whole entry T790M): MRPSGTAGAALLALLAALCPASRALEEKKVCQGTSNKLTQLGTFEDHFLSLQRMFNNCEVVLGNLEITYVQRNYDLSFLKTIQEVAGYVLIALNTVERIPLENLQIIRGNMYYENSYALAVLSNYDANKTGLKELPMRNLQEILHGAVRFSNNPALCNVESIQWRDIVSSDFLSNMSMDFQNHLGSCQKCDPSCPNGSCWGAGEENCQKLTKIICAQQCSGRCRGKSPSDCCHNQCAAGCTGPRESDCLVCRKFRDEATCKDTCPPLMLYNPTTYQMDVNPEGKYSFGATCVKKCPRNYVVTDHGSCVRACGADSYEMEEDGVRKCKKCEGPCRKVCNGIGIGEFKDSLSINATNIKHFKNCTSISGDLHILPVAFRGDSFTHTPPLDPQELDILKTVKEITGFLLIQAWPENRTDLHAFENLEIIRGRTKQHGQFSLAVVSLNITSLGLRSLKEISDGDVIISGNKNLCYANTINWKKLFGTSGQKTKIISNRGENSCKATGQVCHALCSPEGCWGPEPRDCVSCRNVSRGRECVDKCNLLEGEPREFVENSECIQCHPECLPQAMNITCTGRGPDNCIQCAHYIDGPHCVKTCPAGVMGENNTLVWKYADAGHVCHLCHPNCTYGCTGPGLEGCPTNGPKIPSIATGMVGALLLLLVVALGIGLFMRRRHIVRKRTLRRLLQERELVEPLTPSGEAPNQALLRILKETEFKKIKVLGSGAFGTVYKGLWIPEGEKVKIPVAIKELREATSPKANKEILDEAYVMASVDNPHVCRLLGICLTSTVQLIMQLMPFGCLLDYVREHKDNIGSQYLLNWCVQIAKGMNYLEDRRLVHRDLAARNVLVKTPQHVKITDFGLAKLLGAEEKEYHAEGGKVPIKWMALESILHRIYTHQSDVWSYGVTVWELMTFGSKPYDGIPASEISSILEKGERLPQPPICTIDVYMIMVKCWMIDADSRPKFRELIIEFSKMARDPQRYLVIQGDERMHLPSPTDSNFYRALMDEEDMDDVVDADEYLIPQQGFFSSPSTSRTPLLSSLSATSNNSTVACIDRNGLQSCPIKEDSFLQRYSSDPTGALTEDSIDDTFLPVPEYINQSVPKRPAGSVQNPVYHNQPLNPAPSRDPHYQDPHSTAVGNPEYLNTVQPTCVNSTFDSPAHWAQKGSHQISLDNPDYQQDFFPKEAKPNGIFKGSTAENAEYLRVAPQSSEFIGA

% of inhibition [1]: 18.5% | % of inhibition [2]: 6.7% | % of inhibition ([3]; at 0.01 µM): 0.7% | % of inhibition ([3]; at 0.04 µM): -4.1% | % of inhibition ([3]; at 0.2 µM): 7.8% | % of inhibition ([3]; at 1 µM): 27.6% | % of inhibition ([3]; at 5 µM): 63.2%
SMILES: CC[C@@H]1[C@H](F)C(=O)N[C@@H]1COc1nccc2cc(C(N)=O)c(OC)cc12 [ZIMLOVISERTIB]

SMILES: COc1cc(Nc2nc(C)cc(-c3cnn4nc(OC)ccc34)n2)cc(C(F)(F)F)c1
% of control [4]: 86%

SMILES: CCn1c(-c2nc3cc(C(=O)N4CCCC(N)C4)ccc3n2C)cc2ccccc21 (stereo not given)
XC50 [5]: 6.31 µM

% of inhibition [6]: -290% | % of control [7]: 5.81% | % of control [8]: 3.08% | % of control [9]: 3.58% | % of control [10]: 9.07% | % of control [11]: 1.29%
SMILES: Cn1cc(-n2cnc3c(NCc4nc5cc(Cl)c(Cl)cc5[nH]4)nc(N4CCOCC4)nc32)cn1
